This is an account of results in ChEMBL document CHEMBL1128683, “Identification of 3,5-dihydro-2-aryl-1H-pyrazolo[3,4-c]quinoline-1,4(2H)-diones as novel high-affinity glycine site N-methyl-D-aspartate antagonists” (J Med Chem, 1995).

SMILES strings stand for the structures.

The target of this assay is Glutamate receptor ionotropic, NMDA 1 (Rattus norvegicus, UniProt P35439). The experiment in a line: Inhibition of [3H]-3 binding to the glycine site on the NMDA receptor in Rat cortical membranes.
The molecule `O=c1[nH]c2ccccc2c2c(=O)n(-c3ccccc3Cl)[nH]c12` returned an IC50 of 613 nM.

Turning to `O=c1[nH]c2ccccc2c2c(=O)n(-c3ccc(Cl)cc3)[nH]c12`, the IC50 is 138 nM.

As to `COc1ccc(-n2[nH]c3c(=O)[nH]c4cc(Cl)ccc4c3c2=O)cc1`, the IC50 amounted to 3.3 nM.

On to `O=c1[nH]c2ccccc2c2c(=O)n(Cc3ccccc3)[nH]c12`, for which the IC50 was 562 nM.

The molecule `O=c1[nH]c2ccccc2c2c(=O)n(-c3ccccc3)[nH]c12` had an IC50 of 135 nM.

With `O=c1[nH]c2ccccc2c2c(=O)n(-c3cccc(Cl)c3)[nH]c12`, the IC50 is 162 nM.

In turn, `Cn1[nH]c2c(=O)[nH]c3ccccc3c2c1=O` came in with an IC50 of 2020 nM.

`COc1ccc(-n2[nH]c3c(=O)[nH]c4ccccc4c3c2=O)cc1` registered an IC50 of 87 nM.

The molecule `O=c1[nH]c2cc(Cl)ccc2c2c(=O)n(-c3ccccc3)[nH]c12` yielded an IC50 of 16 nM.

Turning to `Cn1c2c(=O)[nH]c3ccccc3c2c(=O)n1-c1ccccc1`, the IC50 was > 100 nM.
